Experimental data reported in ChEMBL document CHEMBL1201862, “PubChem BioAssay data set” (2004).
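In this assay, cells in 96-well plates receive the compound at five concentrations for 48 hours. Endpoints are linearly interpolated between the surrounding concentrations. The concentration for 50% growth inhibition is given as GI50.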 Activity calls are given as the source filed them. No stated cut-off is given here; in the data, active = GI50 up to about 1.1 µM and inactive = higher.

How the values were obtained:
Assay in all cases: DTP human tumour cell line panel, 48 h
MDA-N = tested on: MDA-N
SR = tested on: SR
PC-3 = tested on: PC-3
SK-MEL-5 = tested on: SK-MEL-5
M14 = tested on: M14
UACC-62 = tested on: UACC-62
SN12C = tested on: SN12C
SNB-75 = tested on: SNB-75
OVCAR-4 = tested on: OVCAR-4
OVCAR-8 = tested on: OVCAR-8
SF-295 = tested on: SF-295
EKVX = tested on: EKVX
IGROV-1 = tested on: IGROV-1
U-251 = tested on: U-251
OVCAR-3 = tested on: OVCAR-3
MDA-MB-435 = tested on: MDA-MB-435
HCT-116 = tested on: HCT-116
HOP-62 = tested on: HOP-62
SF-268 = tested on: SF-268
SF-539 = tested on: SF-539
RPMI-8226 = tested on: RPMI-8226
SW-620 = tested on: SW-620
K562 = tested on: K562
HT-29 = tested on: HT-29
NCI-H522 = tested on: NCI-H522
NCI-H460 = tested on: NCI-H460
HOP-92 = tested on: HOP-92
SK-MEL-2 = tested on: SK-MEL-2
BT-549 = tested on: BT-549
Hs-578T = tested on: Hs-578T
MCF7 = tested on: MCF7
SNB-19 = tested on: SNB-19
UO-31 = tested on: UO-31
ACHN = tested on: ACHN
MDA-MB-231 = tested on: MDA-MB-231
T47D = tested on: T47D
OVCAR-5 = tested on: OVCAR-5
SK-MEL-28 = tested on: SK-MEL-28
NCI/ADR-RES = tested on: NCI/ADR-RES
SK-OV-3 = tested on: SK-OV-3
KM12 = tested on: KM12
NCI-H226 = tested on: NCI-H226
TK-10 = tested on: TK-10
CAKI-1 = tested on: CAKI-1
A498 = tested on: A498
COLO 205 = tested on: COLO 205
HCC 2998 = tested on: HCC 2998
UACC-257 = tested on: UACC-257
A549 = tested on: A549
Malme-3M = tested on: Malme-3M
NCI-H23 = tested on: NCI-H23
DU-145 = tested on: DU-145
HCT-15 = tested on: HCT-15
786-0 = tested on: 786-0
RXF 393 = tested on: RXF 393
HL-60 = tested on: HL-60
LOX IMVI = tested on: LOX IMVI
CCRF-CEM = tested on: CCRF-CEM
MOLT-4 = tested on: MOLT-4

Question: CN(C)CCNc1ccc2c(=O)n(CCN(C)C)c(=O)n3c4ccc(N)cc4c(=O)c1c23 was tested. Which GI50 (MDA-N) did it give?
Answer: 50.2 nM (active)

Question: What about the GI50 (SR) of the same molecule?
Answer: < 19.4 nM (active)

Question: And the GI50 (PC-3)?
Answer: 60.8 nM (active)

Question: What about the GI50 (SK-MEL-5) of the same molecule?
Answer: 194 nM (active)

Question: What about the GI50 (M14) of the same molecule?
Answer: 120 nM (active)

Question: What about the GI50 (UACC-62) of the same molecule?
Answer: 393 nM (active)

Question: And the GI50 (SN12C)?
Answer: < 10 nM (active)

Question: And the GI50 (SNB-75)?
Answer: 78.2 nM (active)

Question: And the GI50 (OVCAR-4)?
Answer: 72.1 nM (active)

Question: What about the GI50 (OVCAR-8) of the same molecule?
Answer: < 10 nM (active)

Question: What about the GI50 (SF-295) of the same molecule?
Answer: 67.1 nM (active)

Question: What about the GI50 (EKVX) of the same molecule?
Answer: 119 nM (active)

Question: What about the GI50 (IGROV-1) of the same molecule?
Answer: < 12.4 nM (active)

Question: And the GI50 (U-251)?
Answer: 26.4 nM (active)

Question: What about the GI50 (OVCAR-3) of the same molecule?
Answer: 99.5 nM (active)

Question: What about the GI50 (MDA-MB-435) of the same molecule?
Answer: 101 nM (active)

Question: And the GI50 (HCT-116)?
Answer: < 10 nM (active)

Question: What about the GI50 (HOP-62) of the same molecule?
Answer: 109 nM (active)

Question: And the GI50 (SF-268)?
Answer: < 27.2 nM (active)

Question: What about the GI50 (SF-539) of the same molecule?
Answer: 39.5 nM (active)

Question: What about the GI50 (RPMI-8226) of the same molecule?
Answer: 40 nM (active)

Question: What about the GI50 (SW-620) of the same molecule?
Answer: < 10 nM (active)

Question: And the GI50 (K562)?
Answer: < 10 nM (active)

Question: What about the GI50 (HT-29) of the same molecule?
Answer: < 10 nM (active)

Question: And the GI50 (NCI-H522)?
Answer: < 10 nM (active)

Question: What about the GI50 (NCI-H460) of the same molecule?
Answer: < 10 nM (active)

Question: And the GI50 (HOP-92)?
Answer: 80.7 nM (active)

Question: And the GI50 (SK-MEL-2)?
Answer: 117 nM (active)

Question: And the GI50 (BT-549)?
Answer: 407 nM (active)

Question: And the GI50 (Hs-578T)?
Answer: 178 nM (active)

Question: What about the GI50 (MCF7) of the same molecule?
Answer: < 12 nM (active)

Question: And the GI50 (SNB-19)?
Answer: 26.1 nM (active)

Question: And the GI50 (UO-31)?
Answer: 38.2 nM (active)

Question: What about the GI50 (ACHN) of the same molecule?
Answer: < 10 nM (active)

Question: What about the GI50 (MDA-MB-231) of the same molecule?
Answer: 187 nM (active)

Question: And the GI50 (T47D)?
Answer: 207 nM (active)

Question: What about the GI50 (OVCAR-5) of the same molecule?
Answer: 99.8 nM (active)

Question: And the GI50 (SK-MEL-28)?
Answer: 240 nM (active)

Question: What about the GI50 (NCI/ADR-RES) of the same molecule?
Answer: 259 nM (active)

Question: And the GI50 (SK-OV-3)?
Answer: 261 nM (active)

Question: What about the GI50 (KM12) of the same molecule?
Answer: 64.4 nM (active)

Question: And the GI50 (NCI-H226)?
Answer: < 21.5 nM (active)

Question: What about the GI50 (TK-10) of the same molecule?
Answer: 318 nM (active)

Question: What about the GI50 (CAKI-1) of the same molecule?
Answer: 115 nM (active)

Question: And the GI50 (A498)?
Answer: 408 nM (active)

Question: And the GI50 (COLO 205)?
Answer: 67.5 nM (active)

Question: What about the GI50 (HCC 2998) of the same molecule?
Answer: 39.2 nM (active)

Question: What about the GI50 (UACC-257) of the same molecule?
Answer: 258 nM (active)

Question: And the GI50 (A549)?
Answer: < 10 nM (active)

Question: What about the GI50 (Malme-3M) of the same molecule?
Answer: 116 nM (active)

Question: And the GI50 (NCI-H23)?
Answer: 36.1 nM (active)

Question: What about the GI50 (DU-145) of the same molecule?
Answer: 66.5 nM (active)

Question: And the GI50 (HCT-15)?
Answer: 21.1 nM

Question: What about the GI50 (786-0) of the same molecule?
Answer: < 10 nM (active)

Question: What about the GI50 (RXF 393) of the same molecule?
Answer: 76.9 nM (active)

Question: And the GI50 (HL-60)?
Answer: 43.4 nM (active)

Question: And the GI50 (LOX IMVI)?
Answer: 77.5 nM (active)

Question: What about the GI50 (CCRF-CEM) of the same molecule?
Answer: < 10 nM (active)

Question: What about the GI50 (MOLT-4) of the same molecule?
Answer: < 10 nM (active)

Question: What does the source list for CCCCCCCCCCCCC1N=C(N)N2CCCC2=C1C(=O)OC (stereo not drawn)?
Answer: GI50 (MDA-N): 1950 nM (inactive); GI50 (SR): 2130 nM (inactive); GI50 (PC-3): 1620 nM (inactive); GI50 (SK-MEL-5): 2420 nM (inactive); GI50 (M14): 1730 nM (inactive); GI50 (UACC-62): 1740 nM (inactive); GI50 (SN12C): 2750 nM (inactive); GI50 (SNB-75): 1540 nM (inactive); GI50 (OVCAR-4): 2310 nM (inactive); GI50 (OVCAR-8): 2490 nM (inactive); GI50 (SF-295): 1780 nM (inactive); GI50 (EKVX): 14700 nM (inactive); GI50 (IGROV-1): 3220 nM (inactive); GI50 (U-251): 1650 nM (inactive); GI50 (OVCAR-3): 2140 nM (inactive); GI50 (MDA-MB-435): 1860 nM (inactive); GI50 (HCT-116): 1730 nM (inactive); GI50 (HOP-62): 4240 nM (inactive); GI50 (SF-268): 3440 nM (inactive); GI50 (SF-539): 5410 nM (inactive); GI50 (RPMI-8226): 1820 nM (inactive); GI50 (SW-620): 1700 nM (inactive); GI50 (K562): 1380 nM (inactive); GI50 (HT-29): 1670 nM (inactive); GI50 (NCI-H522): 1760 nM (inactive); GI50 (NCI-H460): 1790 nM (inactive); GI50 (HOP-92): 4350 nM (inactive); GI50 (SK-MEL-2): 2320 nM (inactive); GI50 (BT-549): 10900 nM (inactive); GI50 (Hs-578T): 2250 nM (inactive); GI50 (MCF7): 1770 nM (inactive); GI50 (SNB-19): 1800 nM (inactive); GI50 (UO-31): 8260 nM (inactive); GI50 (ACHN): 5380 nM (inactive); GI50 (MDA-MB-231): 1900 nM (inactive); GI50 (T47D): 1690 nM (inactive); GI50 (OVCAR-5): 6250 nM (inactive); GI50 (SK-MEL-28): 1690 nM (inactive); GI50 (NCI/ADR-RES): 5920 nM (inactive); GI50 (SK-OV-3): 8490 nM (inactive); GI50 (KM12): 1980 nM (inactive); GI50 (NCI-H226): 19100 nM (inactive); GI50 (TK-10): 7620 nM (inactive); GI50 (CAKI-1): 3240 nM (inactive); GI50 (A498): 22600 nM (inactive); GI50 (COLO 205): 1950 nM (inactive); GI50 (HCC 2998): 1840 nM (inactive); GI50 (UACC-257): 1860 nM (inactive); GI50 (A549): 8670 nM (inactive); GI50 (Malme-3M): 1800 nM (inactive); GI50 (NCI-H23): 2260 nM (inactive); GI50 (DU-145): 8070 nM (inactive); GI50 (HCT-15): 1790 nM; GI50 (786-0): 1740 nM (inactive); GI50 (RXF 393): 47800 nM (inactive); GI50 (HL-60): 1850 nM (inactive); GI50 (LOX IMVI): 1510 nM (inactive); GI50 (CCRF-CEM): 1610 nM (inactive); GI50 (MOLT-4): 1470 nM (inactive)
